In ChEMBL document CHEMBL1129258, “Synthesis and structure-activity relationships of 2-pyridones: a novel series of potent DNA gyrase inhibitors as antibacterial agents” (J Med Chem, 1996) one finds MIC, CC50 and ED50 data, which are given here for 7 compounds.

In one assay the test system is Enterococcus faecalis. As to the kind of experiment: Inhibitory activity against enterococcus faecalis Van B. Format: functional.
Assay [1] deals with T1, DNA gyrase (Escherichia coli) (UniProt P0AES6+P0AES4). The experiment in a line: In vitro antibacterial activity against gram-negative organism […] ATCC 13048. Format: functional. As to conditions: Enterobacter aerogenes.
A further assay deals with Enterococcus faecium. The experiment in a line: Inhibitory activity against enterococcus faecium Van A. The class given is functional.
Assay [2] concerns the target T1, DNA gyrase (Escherichia coli). The experiment in a line: In vitro antibacterial against gram-negative organism Escherichia coli JUHL. Format: functional. As to conditions: Escherichia coli K-12.
For assay [3] the target is unchanged. As to the kind of experiment: In vitro antibacterial activity against gram-negative organism Klebsiella pneumoniae ATCC 8045. The class given is functional.
Assay [4] has the same target. The experiment in a line: In vitro antibacterial activity against gram-negative organism Prov. stuartii CMX-640. Format: functional. To be noted: Providencia stuartii.
Assay [5] in a line: In vitro antibacterial activity against gram-negative organism Pseudomonas aeruginosa 5007. The class given is functional. As to conditions: Pseudomonas aeruginosa; read-out: MIC.
The nature of assay [6]: In vitro antibacterial activity against gram-negative organism Pseudomonas aeruginosa DPHD-2862. The class given is functional. To be noted: Pseudomonas aeruginosa; read-out: MIC.
The target of assay [7] is T2, DNA gyrase (Staphylococcus aureus) (UniProt P0A0K8+P20831). The experiment in a line: In vitro antibacterial activity against gram-positive organism Staphylococcus aureus 1775. The class given is functional.
The target in assay [8] is T2, DNA gyrase (Staphylococcus aureus). As to the kind of experiment: In vitro antibacterial activity against gram-positive organism Staphylococcus aureus ATCC 6538p. Format: functional.
Assay [9] has the same target. As to the kind of experiment: In vitro antibacterial activity against gram-positive organism Staphylococcus aureus NCTC-10649M. Format: functional.
For assay [10], the target named is T1, DNA gyrase (Escherichia coli). As to the kind of experiment: In vitro antibacterial activity against gram-positive organism Streptococcus bovis A-5169. Format: functional. To be noted: Streptococcus equinus.
The next assay concerns Streptococcus pyogenes. As to the kind of experiment: In vitro antibacterial activity against gram-positive organism Streptococcus pyogenes EES61. Format: functional. To be noted: Streptococcus pyogenes; read-out: MIC.
In assay [11] the target is T1, DNA gyrase (Escherichia coli). The experiment in a line: In vitro antibacterial activity against gram-positive organism Enterococcus faecium ATCC 8043. Format: functional.
The target is the same in assay [12]. To be noted: Escherichia coli K-12.
Description: Concentration which causes 50% of the gyrase (Escherichia coli H560)-mediated maximal DNA cleavage.
Assay [13] shares this target. The experiment in a line: In vivo efficacy against Escherichia coli JUHL after oral administration. Format: functional, organism-based. As to conditions: Escherichia coli K-12.
The target is the same in assay [14]. As to the kind of experiment: In vivo efficacy against Escherichia coli JUHL by subcutaneous administration. The class given is functional, organism-based. As to conditions: Escherichia coli K-12.
In assay [15] the target is T2, DNA gyrase (Staphylococcus aureus). As to the kind of experiment: In vivo efficacy against Staphylococcus aureus NCTC-10649M after oral administration. The class given is functional, organism-based.
The target is the same in assay [16]. As to the kind of experiment: In vivo efficacy against Staphylococcus aureus NCTC-10649M after subcutaneous administration. The class given is functional, organism-based.
Assay [17] in a line: In vivo efficacy against Pseudomonas aeruginosa 5007 after subcutaneous administration. Format: functional. To be noted: Pseudomonas aeruginosa, sc; read-out: ED50.
For the next assay, the system named is Streptococcus pneumoniae. The experiment in a line: In vivo efficacy against Strep. administration. The class given is functional.
The subject of a further assay is Pseudomonas aeruginosa. As to the kind of experiment: In vivo efficacy against Pseudomonas aeruginosa 5007 following p.o. administration.

Converted amounts (≈) assume the structure as drawn.

T2 sequence (P0A0K8 2-644 limits assumed): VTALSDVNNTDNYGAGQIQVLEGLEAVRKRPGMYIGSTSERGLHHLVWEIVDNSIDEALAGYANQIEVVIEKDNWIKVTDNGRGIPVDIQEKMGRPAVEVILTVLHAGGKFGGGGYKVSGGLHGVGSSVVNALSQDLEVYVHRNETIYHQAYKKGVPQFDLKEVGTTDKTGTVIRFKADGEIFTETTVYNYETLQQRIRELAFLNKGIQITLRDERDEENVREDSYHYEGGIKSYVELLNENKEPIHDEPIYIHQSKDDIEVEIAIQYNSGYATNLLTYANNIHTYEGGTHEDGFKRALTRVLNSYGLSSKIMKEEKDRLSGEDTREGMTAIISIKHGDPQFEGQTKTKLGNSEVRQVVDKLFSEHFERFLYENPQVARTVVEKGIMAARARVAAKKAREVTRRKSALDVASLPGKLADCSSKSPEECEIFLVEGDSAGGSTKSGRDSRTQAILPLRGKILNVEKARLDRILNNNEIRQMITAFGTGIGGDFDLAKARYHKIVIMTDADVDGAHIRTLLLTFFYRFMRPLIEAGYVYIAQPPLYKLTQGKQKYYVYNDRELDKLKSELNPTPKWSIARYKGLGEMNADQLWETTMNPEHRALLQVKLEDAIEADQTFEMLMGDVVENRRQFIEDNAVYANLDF
T2 sequence (P20831 whole entry partner): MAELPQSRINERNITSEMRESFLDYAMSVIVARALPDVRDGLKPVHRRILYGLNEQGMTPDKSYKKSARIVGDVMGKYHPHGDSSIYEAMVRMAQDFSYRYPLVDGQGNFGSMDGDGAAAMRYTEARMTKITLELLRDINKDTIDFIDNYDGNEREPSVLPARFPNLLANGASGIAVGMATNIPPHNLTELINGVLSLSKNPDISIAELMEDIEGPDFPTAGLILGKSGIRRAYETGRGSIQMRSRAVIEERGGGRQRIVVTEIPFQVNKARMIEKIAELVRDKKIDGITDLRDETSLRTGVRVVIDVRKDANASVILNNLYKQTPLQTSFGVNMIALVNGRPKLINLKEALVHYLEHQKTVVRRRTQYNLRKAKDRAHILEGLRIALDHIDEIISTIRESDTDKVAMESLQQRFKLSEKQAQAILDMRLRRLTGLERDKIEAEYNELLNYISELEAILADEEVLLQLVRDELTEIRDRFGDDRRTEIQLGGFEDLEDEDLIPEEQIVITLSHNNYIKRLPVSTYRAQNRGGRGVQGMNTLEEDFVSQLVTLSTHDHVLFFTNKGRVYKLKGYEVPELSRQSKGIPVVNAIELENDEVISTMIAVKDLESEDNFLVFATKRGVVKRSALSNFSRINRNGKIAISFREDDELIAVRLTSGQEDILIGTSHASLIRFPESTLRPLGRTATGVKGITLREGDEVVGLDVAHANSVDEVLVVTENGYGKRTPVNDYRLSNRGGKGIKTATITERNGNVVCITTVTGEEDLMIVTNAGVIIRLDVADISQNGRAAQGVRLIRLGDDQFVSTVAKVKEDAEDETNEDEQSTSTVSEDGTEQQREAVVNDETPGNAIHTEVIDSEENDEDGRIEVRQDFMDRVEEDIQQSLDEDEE

For the compound `Cc1c(N2CCC(CN)C2)c(F)cn2c(=O)c(C(=O)O)cc(C3CC3)c12` (stereo not drawn), the MIC against Enterococcus faecalis came out at 0.015 µg/mL (≈ 0.0417 µM); in assay [1], 0.01 µg/mL (≈ 0.0278 µM); in the assay with Enterococcus faecium, 0.03 µg/mL (≈ 0.0835 µM); in assay [2], 0.005 µg/mL (≈ 0.0139 µM); in assay [3] it was 0.005 µg/mL (≈ 0.0139 µM); in assay [4], 0.39 µg/mL (≈ 1.09 µM). The MIC turned out to be 0.1 µg/mL (≈ 0.278 µM) in assay [5]; 1.56 µg/mL (≈ 4.34 µM) in assay [6]; 0.39 µg/mL (≈ 1.09 µM) in [7]; 0.002 µg/mL (≈ 0.00556 µM) in assay [8]; 0.002 µg/mL (≈ 0.00556 µM) in assay [9]; 0.002 µg/mL (≈ 0.00556 µM) in assay [10]. The MIC with Streptococcus pyogenes stood at 0.002 µg/mL (≈ 0.00556 µM); in assay [11], 0.01 µg/mL (≈ 0.0278 µM). For the same compound, the CC50 in assay [12] is 0.05 µg/mL (≈ 0.139 µM).

What is called ED50 is the dose at which the effect has come halfway, by size or by number of responders. In the case of `Cc1c(N2C[C@@H]3CCN[C@@H]3C2)c(F)cn2c(=O)c(C(=O)O)cc(C3CC3)c12` (stereo in doubt; 45o), the ED50 in assay [13] turned out to be 2.5 mg/kg; in assay [14] it was 0.4 mg/kg; in assay [15], 5 mg/kg; in [16] it was 0.7 mg/kg. Also, the MIC in assay [1] came to 0.05 µg/mL (≈ 0.135 µM); in assay [2], 0.02 µg/mL (≈ 0.0538 µM); in [3] it was 0.01 µg/mL (≈ 0.0269 µM); in assay [4] it was 0.78 µg/mL (≈ 2.1 µM); in assay [7], 0.39 µg/mL (≈ 1.05 µM); in assay [8] it was 0.02 µg/mL (≈ 0.0538 µM). The values for the MIC in assay [9], in assay [10] and in [11] were 0.02 µg/mL (≈ 0.0538 µM), 0.05 µg/mL (≈ 0.135 µM) and 0.05 µg/mL (≈ 0.135 µM), respectively. For the same compound, the CC50 in assay [12] amounted to 0.1 µg/mL (≈ 0.269 µM).

In the case of `Cl.O=C(O)c1cn(C2CC2)c2cc(N3CCNCC3)c(F)cc2c1=O` [CIPROFLOXACIN HYDROCHLORIDE], the MIC in the assay with Enterococcus faecalis was 1 µg/mL; in the assay with Enterococcus faecium it was 4 µg/mL; in assay [7], > 100 µg/mL; in assay [8], 0.2 µg/mL; in [9], 0.39 µg/mL.

Regarding `Cc1c(N2C[C@@H]3[C@@H](N)[C@@H]3C2)c(F)cn2c(=O)c(C(=O)O)cc(C3CC3)c12`, the ED50 in assay [13] was > 10 mg/kg; in assay [14], 1.4 mg/kg; in assay [17] it was 18 mg/kg; in assay [15], 14.6 mg/kg; in assay [16] it was 4.1 mg/kg; in the assay with Streptococcus pneumoniae, 6.7 mg/kg. For the same compound, the ED50 with Pseudomonas aeruginosa is > 50 mg/kg. The MIC in assay [1] was determined as 0.02 µg/mL (≈ 0.056 µM); in assay [2], 0.01 µg/mL (≈ 0.028 µM); in [3], 0.01 µg/mL (≈ 0.028 µM); in assay [4], 0.78 µg/mL (≈ 2.18 µM); in assay [5] it was 0.2 µg/mL (≈ 0.56 µM); in [6], 6.2 µg/mL (≈ 17.3 µM). Moreover, the MIC in assay [7] is 1.56 µg/mL (≈ 4.37 µM); in [8], 0.02 µg/mL (≈ 0.056 µM); in [9], 0.02 µg/mL (≈ 0.056 µM); in assay [10], 0.1 µg/mL (≈ 0.28 µM); with Streptococcus pyogenes, 0.1 µg/mL (≈ 0.28 µM); in assay [11] it was 0.1 µg/mL (≈ 0.28 µM). The compound also showed a CC50 in assay [12] of 0.3 µg/mL (≈ 0.839 µM).

Take `NC1CCN(c2nc3c(C4CC4)cc(C(=O)O)c(=O)n3cc2F)C1` (stereo not drawn): the ED50 in assay [13] was 4.7 mg/kg; in assay [14], 1 mg/kg; in assay [15] it was > 12 mg/kg; in assay [16], > 8 mg/kg. Also, the MIC in assay [1] is 0.02 µg/mL (≈ 0.0602 µM); in assay [2], 0.02 µg/mL (≈ 0.0602 µM); in assay [3], 0.02 µg/mL (≈ 0.0602 µM); in assay [4], 1.56 µg/mL (≈ 4.69 µM); in [5], 0.39 µg/mL (≈ 1.17 µM); in assay [6], 25 µg/mL (≈ 75.2 µM). Moreover, the MIC in assay [7] was found to be 25 µg/mL (≈ 75.2 µM); in assay [8], 0.2 µg/mL (≈ 0.602 µM); in [9] it was 0.2 µg/mL (≈ 0.602 µM); in assay [10], 3.1 µg/mL (≈ 9.33 µM); with Streptococcus pyogenes, 1.56 µg/mL (≈ 4.69 µM); in [11], 1.56 µg/mL (≈ 4.69 µM). The same compound gave a CC50 in assay [12] of 0.15 µg/mL (≈ 0.451 µM).

Take `Cc1c(N2C[C@@H]3CCCN[C@@H]3C2)c(F)cn2c(=O)c(C(=O)O)cc(C3CC3)c12` (stereo in doubt; 45n): the ED50 turned out to be 3.3 mg/kg in [13]; 1 mg/kg in assay [14]; 3.1 mg/kg in assay [15]; 0.9 mg/kg in assay [16]; 36.4 mg/kg in the assay with Pseudomonas aeruginosa. Moreover, the MIC in [1] came out at 0.05 µg/mL (≈ 0.13 µM); in assay [2], 0.05 µg/mL (≈ 0.13 µM); in assay [3], 0.01 µg/mL (≈ 0.0259 µM); in assay [4], 0.78 µg/mL (≈ 2.02 µM); in assay [7], 0.78 µg/mL (≈ 2.02 µM); in assay [8] it was 0.01 µg/mL (≈ 0.0259 µM). For the same compound, the figures for the MIC in assay [9], in [10] and in assay [11] were 0.02 µg/mL (≈ 0.0519 µM), 0.05 µg/mL (≈ 0.13 µM) and 0.1 µg/mL (≈ 0.259 µM), respectively. In assay [12], this compound yielded a CC50 of 0.3 µg/mL (≈ 0.778 µM).

Take `CN[C@H](CC(C)C)C(=O)N[C@H]1C(=O)N[C@@H](CC(N)=O)C(=O)N[C@H]2C(=O)N[C@H]3C(=O)N[C@H](C(=O)N[C@H](C(=O)O)c4cc(O)cc(O)c4-c4cc3ccc4O)[C@H](O)c3ccc(c(Cl)c3)Oc3cc2cc(c3O[C@@H]2O[C@H](CO)[C@@H](O)[C@H](O)[C@H]2O[C@H]2C[C@](C)(N)[C@H](O)[C@H](C)O2)Oc2ccc(cc2Cl)[C@H]1O` [VANCOMYCIN]: the MIC was 32 µg/mL (≈ 22.1 µM) in the assay with Enterococcus faecalis and > 128 µg/mL in the assay on Enterococcus faecium.
